Laboratory results from the supplement of paper PMC8617591.

Assays:
[1] = test system: Mycobacterium tuberculosis Erdman (autoluminescent); assay: AUC25, normalised area under dose response up to IC25 (three-drug combination) (fraction (0-1)); higher = more potent at low dose
Protocol: (§1)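 DiaMOND equipotent three-drug combination dose responses (10 doses, 1.5- or 2-fold spacing, centred on IC90) against autoluminescent M. tuberculosis Erdman in 8 in vitro models. Read-out is OD600, or luminescence for the intracellular and dormancy models, normalised to untreated wells. Hill-fit Einf, AUC25 and GRinf are potency metrics; FIC50 and FIC90 are total Loewe fractional inhibitory concentrations as log2 (negative = synergy).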

[2] = test system: Mycobacterium tuberculosis Erdman (autoluminescent); assay: total FIC90 (Loewe) at 90% inhibition, three-drug combination (log2); higher = more antagonistic
Protocol: as §1

[3] = test system: Mycobacterium tuberculosis Erdman (autoluminescent); assay: Einf, fitted maximum growth inhibition of three-drug combination (fraction); higher = stronger maximal inhibition
Protocol: as §1

[4] = test system: Mycobacterium tuberculosis Erdman (autoluminescent); assay: GRinf, maximum normalised growth rate inhibition (three-drug combination) (unitless (-1 to 1)); higher = less effect (negative = killing)
Protocol: as §1

[5] = test system: Mycobacterium tuberculosis Erdman (autoluminescent); assay: total FIC50 (Loewe) at 50% inhibition, three-drug combination (log2); higher = more antagonistic
Protocol: as §1

COc1nc2ccc(Br)cc2cc1[C@@H](c1ccccc1)[C@@](O)(CCN(C)C)c1cccc2ccccc12 [bedaquiline] + CC[C@@H](CO)NCCN[C@@H](CC)CO [ethambutol] + NNC(=O)c1ccncc1 [isoniazid]
Conditions | AUC25, [1] | Einf, [3] | GRinf, [4] | total FIC50, [5] | total FIC90, [2]
in vitro model: acidic pH 5.7, time point: constant (~7 days, model-specific) | 0.112 | 0.858 | -0.682 | 0.0458 | –
in vitro model: acidic pH 5.7, time point: terminal (~4-5 doublings, model-specific) | 0.0484 | 0.953 | -0.339 | 0.537 | -0.855
in vitro model: intracellular J774, time point: constant = terminal | – | 0.988 | -0.401 | – | -0.307

Conditions | AUC25, [1] | Einf, [3] | GRinf, [4] | total FIC50, [5] | total FIC90, [2]
in vitro model: butyrate, time point: constant (~7 days, model-specific) | 0.0535 | 0.943 | -0.0949 | 0.537 | –
in vitro model: butyrate, time point: terminal (~4-5 doublings, model-specific) | 0.0425 | 0.975 | -0.105 | 0.472 | -0.153
in vitro model: cholesterol 0.05 mM, time point: constant (~7 days, model-specific) | 0.0741 | 0.695 | -0.191 | 0.858 | –
in vitro model: cholesterol 0.05 mM, time point: terminal (~4-5 doublings, model-specific) | 0.0839 | 0.891 | -0.205 | 1.12 | 0.995
in vitro model: cholesterol-high 0.2 mM, time point: constant (~7 days, model-specific) | 0.026 | 0.998 | -0.751 | 1.05 | –
in vitro model: cholesterol-high 0.2 mM, time point: terminal (~4-5 doublings, model-specific) | 0.0384 | 1 | -0.702 | 1.09 | 0.96
in vitro model: dormancy (butyrate + nitrate, low O2), time point: constant (~7 days, model-specific) | 0.121 | 0.849 | 0.491 | 1.04 | –
in vitro model: dormancy (butyrate + nitrate, low O2), time point: terminal (~4-5 doublings, model-specific) | 0.0982 | 0.987 | -0.0322 | 0.301 | 0.198
in vitro model: standard 7H9 glycerol, time point: constant = terminal | 0.0658 | 0.957 | -0.0846 | 0.398 | –
in vitro model: valerate, time point: constant (~7 days, model-specific) | 0.116 | 0.912 | -0.0812 | 0.656 | –
in vitro model: valerate, time point: terminal (~4-5 doublings, model-specific) | 0.0717 | 0.954 | -0.0498 | 0.744 | 0.58

COc1nc2ccc(Br)cc2cc1[C@@H](c1ccccc1)[C@@](O)(CCN(C)C)c1cccc2ccccc12 [bedaquiline] + CC[C@@H](CO)NCCN[C@@H](CC)CO [ethambutol] + O=[N+]([O-])c1cn2c(n1)OC[C@@H](OCc1ccc(OC(F)(F)F)cc1)C2 [pretomanid]
Conditions | AUC25, [1] | Einf, [3] | GRinf, [4] | total FIC50, [5] | total FIC90, [2]
in vitro model: acidic pH 5.7, time point: constant (~7 days, model-specific) | 0.0902 | 0.854 | -0.482 | 0.869 | –
in vitro model: acidic pH 5.7, time point: terminal (~4-5 doublings, model-specific) | 0.0847 | 0.982 | -0.316 | 0.639 | 0.498
in vitro model: intracellular J774, time point: constant = terminal | – | 0.938 | -0.203 | – | -1.11

Conditions | AUC25, [1] | Einf, [3] | GRinf, [4] | total FIC50, [5] | total FIC90, [2]
in vitro model: butyrate, time point: constant (~7 days, model-specific) | 0.059 | 0.925 | -0.0548 | 0.544 | –
in vitro model: butyrate, time point: terminal (~4-5 doublings, model-specific) | 0.0482 | 0.966 | -0.0543 | 0.327 | -0.226
in vitro model: cholesterol 0.05 mM, time point: constant (~7 days, model-specific) | 0.0996 | 0.781 | -0.351 | 0.964 | –
in vitro model: cholesterol 0.05 mM, time point: terminal (~4-5 doublings, model-specific) | 0.0849 | 0.927 | -0.277 | 1.08 | 1.26
in vitro model: cholesterol-high 0.2 mM, time point: constant (~7 days, model-specific) | 0.0639 | 0.893 | -0.294 | 1.17 | –
in vitro model: cholesterol-high 0.2 mM, time point: terminal (~4-5 doublings, model-specific) | 0.0509 | 1 | -0.825 | 1.06 | 1.39
in vitro model: dormancy (butyrate + nitrate, low O2), time point: constant (~7 days, model-specific) | 0.123 | 0.894 | 0.353 | 0.967 | –
in vitro model: dormancy (butyrate + nitrate, low O2), time point: terminal (~4-5 doublings, model-specific) | 0.115 | 0.997 | -0.265 | 0.317 | 0.645
in vitro model: standard 7H9 glycerol, time point: constant = terminal | 0.0898 | 0.972 | -0.0976 | 0.231 | –
in vitro model: valerate, time point: constant (~7 days, model-specific) | 0.139 | 0.897 | -0.0325 | -0.239 | –
in vitro model: valerate, time point: terminal (~4-5 doublings, model-specific) | 0.0867 | 0.948 | -0.0164 | 0.257 | 0.215

COc1nc2ccc(Br)cc2cc1[C@@H](c1ccccc1)[C@@](O)(CCN(C)C)c1cccc2ccccc12 [bedaquiline] + CO[C@H]1/C=C/O[C@@]2(C)Oc3c(C)c(O)c4c(O)c(c(/C=N/N5CCN(C6CCCC6)CC5)c(O)c4c3C2=O)NC(=O)/C(C)=C\C=C\[C@H](C)[C@H](O)[C@@H](C)[C@@H](O)[C@@H](C)[C@H](OC(C)=O)[C@@H]1C [rifapentine] + CO[C@H]1/C=C/O[C@@]2(C)Oc3c(C)c(O)c4c(O)c(c(/C=N/N5CCN(C)CC5)c(O)c4c3C2=O)NC(=O)/C(C)=C\C=C\[C@H](C)[C@H](O)[C@@H](C)[C@@H](O)[C@@H](C)[C@H](OC(C)=O)[C@@H]1C [rifampicin]
Conditions | AUC25, [1] | Einf, [3] | GRinf, [4] | total FIC50, [5] | total FIC90, [2]
in vitro model: acidic pH 5.7, time point: constant (~7 days, model-specific) | 0.0935 | 0.893 | -0.273 | 0.903 | –
in vitro model: acidic pH 5.7, time point: terminal (~4-5 doublings, model-specific) | 0.082 | 0.985 | -0.265 | 0.765 | 0.574
in vitro model: intracellular J774, time point: constant = terminal | – | 0.925 | -0.129 | – | 0.499

Conditions | AUC25, [1] | Einf, [3] | GRinf, [4] | total FIC50, [5] | total FIC90, [2]
in vitro model: butyrate, time point: constant (~7 days, model-specific) | 0.119 | 0.965 | -0.195 | 0.199 | -0.101
in vitro model: butyrate, time point: terminal (~4-5 doublings, model-specific) | 0.102 | 0.987 | -0.131 | 0.144 | 0.454
in vitro model: cholesterol 0.05 mM, time point: constant (~7 days, model-specific) | 0.118 | 0.73 | -0.233 | 0.198 | –
in vitro model: cholesterol 0.05 mM, time point: terminal (~4-5 doublings, model-specific) | 0.0915 | 0.927 | -0.216 | 0.249 | 0.0937
in vitro model: cholesterol-high 0.2 mM, time point: constant (~7 days, model-specific) | 0.0646 | 0.957 | -0.49 | 0.444 | -0.0134
in vitro model: cholesterol-high 0.2 mM, time point: terminal (~4-5 doublings, model-specific) | 0.0574 | 0.998 | -0.604 | 0.544 | 0.3
in vitro model: dormancy (butyrate + nitrate, low O2), time point: constant (~7 days, model-specific) | 0.0847 | 0.905 | 0.174 | 0.141 | 0.723
in vitro model: dormancy (butyrate + nitrate, low O2), time point: terminal (~4-5 doublings, model-specific) | 0.0726 | 0.982 | -0.165 | 0.273 | 0.653
in vitro model: standard 7H9 glycerol, time point: constant = terminal | 0.0706 | 0.924 | -0.0268 | 0.258 | 0.35
in vitro model: valerate, time point: constant (~7 days, model-specific) | 0.046 | 0.873 | -0.0628 | 0.679 | –
in vitro model: valerate, time point: terminal (~4-5 doublings, model-specific) | 0.028 | 0.951 | -0.0371 | 0.579 | 0.302
